Measurements from US20050222402A1, “Dna encoding rat bombesin receptor subtype-3 (brs-3) and uses thereof” (priority 2001, published 2005).
Changes are numbered by the printed parent chain. Non-standard residues stand in square brackets, D forms with d. Residues, ends and D or L forms follow the SMILES beside them. Nle = CCCC[C@H](N)C(=O)O; βAla = NCCC(=O)O

Assays:
mouse BRS-3 = molecular target: T1, mouse BRS-3 (Mus musculus, UniProt O54798, S28P/V27A); assay: Calcium mobilization assay (FLIPR), same expression system; format: cell-based; conditions: data not shown
T1 construct: expressed in transfected cells; host or cells: same expression system as rat BRS-3 (pE3 / 293EBNA)
T1 sequence (O54798 1-399 V27A/S28P): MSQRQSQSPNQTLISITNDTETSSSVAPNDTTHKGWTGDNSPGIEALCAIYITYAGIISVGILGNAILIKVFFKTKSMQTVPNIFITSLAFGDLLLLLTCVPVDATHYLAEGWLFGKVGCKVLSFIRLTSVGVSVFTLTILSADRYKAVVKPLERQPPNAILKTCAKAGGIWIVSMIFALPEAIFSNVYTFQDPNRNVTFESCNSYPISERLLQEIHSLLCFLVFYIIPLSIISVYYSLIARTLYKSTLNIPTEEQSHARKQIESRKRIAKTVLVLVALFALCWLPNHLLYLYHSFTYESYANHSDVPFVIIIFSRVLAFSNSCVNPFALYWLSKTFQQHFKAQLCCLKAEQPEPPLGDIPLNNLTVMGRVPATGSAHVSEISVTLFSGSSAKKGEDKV

rat BRS-3 = molecular target: T2, rat BRS-3 (Rattus norvegicus, UniProt Q8K418); assay: Phosphatidylinositol hydrolysis functional assay; format: cell-based
T2 construct: utilized to PCR amplify full-length rat BRS-3 cDNA; expressed in transfected cells; host or cells: 293EBNA cells, pE3 expression vector
T2 sequence (Q8K418 1-399): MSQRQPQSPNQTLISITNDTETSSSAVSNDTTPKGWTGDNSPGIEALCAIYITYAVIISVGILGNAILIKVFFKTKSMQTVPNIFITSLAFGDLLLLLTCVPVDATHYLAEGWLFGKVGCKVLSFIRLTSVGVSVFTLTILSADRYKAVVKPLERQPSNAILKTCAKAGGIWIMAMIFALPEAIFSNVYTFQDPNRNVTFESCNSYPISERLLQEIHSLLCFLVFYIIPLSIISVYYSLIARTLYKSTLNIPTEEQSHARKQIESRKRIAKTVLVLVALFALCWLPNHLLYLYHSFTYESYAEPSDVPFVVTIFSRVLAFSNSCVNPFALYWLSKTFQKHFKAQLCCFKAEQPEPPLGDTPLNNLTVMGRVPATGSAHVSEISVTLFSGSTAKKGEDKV
Description: Wild type and mutant BRS-3 constructs were transfected by using lipofectamine reagents (Life Technologies, Rockville, Md.) into 293EBNA cells (Invitrogen, Carlsbad, Calif.) which support episomal replication of plasmid containing Epstein Bar virus OriP segment. Stable cell lines were obtained by selection with 250 ug/ml hygromycin. The cells were maintained as monolayers in Dulbecco's modified Eagle's medium (Life Technologies, Rockville, Md.) supplemented with 10% fetal bovine serum and incubated at 37° C. in a humidified 5% CO2 incubator.
The functional properties of rat BRS-3 were characterized in transfected 293EBNA cells. The transfected 293EBNA cells were plated onto poly-D-lysine coated 12-well plates and incubated in the medium containing 2 uCi/ml [^3H]myo-inositol. The cells were labeled for 48 hrs, and subsequently incubated for 30 minutes in Hank's balanced salt solution containing 10 mM HEPES, 0.1% BSA and 10 mM LiCl.
Since a natural agonist of BRS-3 has not been found, members of the bombesin-like peptide family, including GRP, NMB, bombesin and dYB, were used to stimulate the transfected cells described above, in the same buffer, for 1 hr at 37° C. The reaction was stopped by removal of medium and addition of 10 mM formic acid. The inositol monophosphate fraction was then isolated by anion chromatography as described (Berridge et al. Biochem. J. 212: 473-482 (1983), which is hereby incorporated by reference).

RBB3-E3 = molecular target: T3, RBB3-E3 (Rattus norvegicus, UniProt Q8K418, A302V/D306A/E299Q/E303D/P308H/S300T/V307M/V310I/V311F/Y298S); assay: Radioligand binding assay with 125I-dYB; parameters: species or system rat/human; conditions: displacement of [125I]dYB by unlabeled dYB
T3 construct: expressed in transfected cells; host or cells: 293EBNA cells, pE3 expression vector
T3 sequence (Q8K418 1-399 Y298S/E299Q/S300T/A302V/E303D/D306A/V307M/P308H/V310I/V311F): T2 sequence (Q8K418 1-399) with Y298S, E299Q, S300T, A302V, E303D, D306A, V307M, P308H, V310I, V311F
Description: After removal of cell nuclei by a low speed centrifugation (1000×g) step, the cell membrane proteins were collected by centrifugation at 35,000×g for 20 minutes. The membrane protein concentration was determined by the Bradford method using BSA as standard.
After a 2 hr incubation at room temperature, the binding reaction was terminated by filtering through a GF/c filter-mate and washing the filter with binding buffer using Packard 96-well Topcount Harvester. The amount of radioligand bound to the receptor was determined by measurement of the radioactivity on the filter through liquid scintillation counting. The non-specific binding was defined as the binding in the presence of 1 uM unlabeled dYB.

| SMILES | EC50 (mouse BRS-3) | increase in PI hydrolysis (rat BRS-3) | stimulation of phosphatidylinositol (PI) hydrolysis (inositol monophosphate production) (rat BRS-3) | Ki (RBB3-E3) |
| --- | --- | --- | --- | --- |
| CCCC[C@H](NC(=O)[C@H](Cc1ccccc1)NC(=O)[C@H](Cc1c[nH]cn1)NC(=O)CCNC(=O)[C@@H](NC(=O)[C@H](C)NC(=O)[C@H](Cc1c[nH]c2ccccc12)NC(=O)[C@H](CCC(N)=O)NC(=O)[C@H](N)Cc1ccc(O)cc1)C(C)C)C(N)=O [dYB, [D-Tyr6-betaAla11-Phe13-Nle14] bombesin (6-14)] (H-[dY]QWAV[βAla]HF[Nle]-NH2) | in the uM range | 9 fold | significant increase |  |
| CCCC[C@H](NC(=O)[C@H](Cc1ccccc1)NC(=O)[C@H](Cc1cnc[nH]1)NC(=O)CCNC(=O)[C@@H](NC(=O)[C@H](C)NC(=O)[C@H](Cc1c[nH]c2ccccc12)NC(=O)[C@H](CCC(N)=O)NC(=O)[C@H](N)Cc1ccc(O)cc1)C(C)C)C(N)=O [dYB, [D-Tyr6-betaAla11-Phe13-Nle14] bombesin (6-14)] (H-[dY]QWAV[βAla]HF[Nle]-NH2) |  |  |  | 1.2 ± 0.7 nM |
